According to patent US20250215029A1 (Recludix Pharma, Inc., priority 2022, published 2025):
pIC50: −log10 of the molar value.

How the values were obtained:
pY641-STAT6 in PBMC = biological target: T1, pY641-STAT6 in PBMC (Homo sapiens, UniProt P42226); experiment: MSD-pSTAT-PBMC Assay (pSTAT6, IL-4 stimulated); format: cell-based; conditions: PBMC, compound 3 hrs, then 1 ng/mL IL-4 for 10 min; Table 1114; read-out: pSTAT6
T1 construct: Cryopreserved Peripheral Blood Mononuclear Cells (PBMC) are from AllCells; host or cells: cryopreserved PBMC
T1 sequence (P42226 1-847): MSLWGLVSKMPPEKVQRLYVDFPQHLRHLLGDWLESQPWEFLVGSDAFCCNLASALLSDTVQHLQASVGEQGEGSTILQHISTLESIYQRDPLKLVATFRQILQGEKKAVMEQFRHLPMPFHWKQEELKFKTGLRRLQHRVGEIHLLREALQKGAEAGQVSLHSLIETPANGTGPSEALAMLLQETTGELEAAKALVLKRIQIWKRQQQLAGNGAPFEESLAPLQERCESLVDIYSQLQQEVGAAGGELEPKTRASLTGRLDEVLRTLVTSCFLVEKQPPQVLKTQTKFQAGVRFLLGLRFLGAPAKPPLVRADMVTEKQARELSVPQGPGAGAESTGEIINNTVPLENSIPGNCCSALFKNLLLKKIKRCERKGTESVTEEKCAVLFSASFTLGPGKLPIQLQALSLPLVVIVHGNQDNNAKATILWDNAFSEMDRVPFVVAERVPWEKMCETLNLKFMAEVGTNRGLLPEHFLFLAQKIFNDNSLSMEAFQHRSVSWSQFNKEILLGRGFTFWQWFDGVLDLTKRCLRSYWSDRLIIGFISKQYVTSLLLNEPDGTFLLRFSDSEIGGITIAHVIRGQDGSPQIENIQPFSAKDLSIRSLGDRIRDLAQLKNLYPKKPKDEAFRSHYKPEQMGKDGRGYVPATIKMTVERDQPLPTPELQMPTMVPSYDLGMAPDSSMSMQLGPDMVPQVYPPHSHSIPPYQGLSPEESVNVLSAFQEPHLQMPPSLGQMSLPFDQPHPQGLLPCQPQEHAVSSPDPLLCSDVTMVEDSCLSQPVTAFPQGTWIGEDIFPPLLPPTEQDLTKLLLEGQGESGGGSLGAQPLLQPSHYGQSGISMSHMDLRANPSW
Procedure, shortened: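 MSD electrochemiluminescence read-out: total STAT captured, probed with anti-pY641-STAT6 or anti-pY705-STAT3. Human PBMC, 3 h compound pretreatment, 10 min stimulation (IL-4 1 ng/mL or IL-6 10 ng/mL). Unstimulated signal subtracted, DMSO-normalized, variable-slope IC50.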

pY705-STAT3 in PBMC = biological target: T2, pY705-STAT3 in PBMC (Homo sapiens, UniProt P40763); experiment: MSD-pSTAT-PBMC Assay (pSTAT3, IL-6 stimulated); format: cell-based; conditions: PBMC, compound 3 hrs, then 10 ng/mL IL-6 for 10 min; Table 1114; read-out: pSTAT3
T2 construct: Cryopreserved Peripheral Blood Mononuclear Cells (PBMC) are from AllCells; host or cells: cryopreserved PBMC
T2 sequence (P40763 whole entry): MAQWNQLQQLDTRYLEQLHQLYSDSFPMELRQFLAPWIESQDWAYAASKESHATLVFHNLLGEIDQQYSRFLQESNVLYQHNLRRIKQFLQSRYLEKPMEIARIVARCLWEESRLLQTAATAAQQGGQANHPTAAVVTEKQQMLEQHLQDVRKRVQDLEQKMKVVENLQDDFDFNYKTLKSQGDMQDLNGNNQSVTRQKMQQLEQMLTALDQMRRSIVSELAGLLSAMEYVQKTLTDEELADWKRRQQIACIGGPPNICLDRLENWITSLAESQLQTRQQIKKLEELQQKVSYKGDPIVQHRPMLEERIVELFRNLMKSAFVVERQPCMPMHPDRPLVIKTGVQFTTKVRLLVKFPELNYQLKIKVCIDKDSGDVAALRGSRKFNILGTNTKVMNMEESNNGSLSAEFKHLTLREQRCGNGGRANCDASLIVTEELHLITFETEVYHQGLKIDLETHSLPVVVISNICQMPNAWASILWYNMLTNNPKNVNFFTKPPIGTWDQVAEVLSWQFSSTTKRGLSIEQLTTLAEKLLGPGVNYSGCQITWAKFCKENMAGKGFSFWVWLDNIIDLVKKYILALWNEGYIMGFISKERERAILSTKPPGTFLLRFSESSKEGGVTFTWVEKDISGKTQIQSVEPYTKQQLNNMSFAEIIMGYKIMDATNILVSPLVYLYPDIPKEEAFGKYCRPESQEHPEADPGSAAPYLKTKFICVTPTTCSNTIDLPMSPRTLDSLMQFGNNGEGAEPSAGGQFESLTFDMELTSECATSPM
Procedure, shortened: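 Cells are preincubated with compound for 3 hrs, then stimulated for 10 min, IL-4 at 1 ng/mL driving STAT6 phosphorylation and IL-6 at 10 ng/mL driving STAT3. Phospho-STAT in lysates is quantified by MSD immunoassay, and IC50 is fitted after subtracting unstimulated wells.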

Question: What does the source list for “S-(2-((((2- (((3S,6S,10aS)-3- ((3S,4R or 3R,4S)-3- cyano-4- phenylpyrrolidine-1- carbonyl)-5- oxodecahydro- pyrrolo[1,2-a] azocin-6- yl)carbamoyl) benzo[b]thiophen- 5-yl)difluoromethyl) (2-(pivaloylthio) ethoxy)phosphoryl) oxy)ethyl) butanethioate [Compound 165]”?
Answer: pIC50 (pY641-STAT6 in PBMC): 6.00 to 7.00; pIC50 (pY705-STAT3 in PBMC): 5.52 to 6.00
